From US20200190062A1, “HETEROCYCLIC COMPOUND AND PHARMACEUTICAL COMPOSITION COMPRISING SAME” (BEYONDBIO INC., priority 2015, published 2020)
Structures can show the parent of a compound that is named as a salt.

Legend:
[1] = tested on: HCT116; assay: Inhibition of cancer cell proliferation (MTT); assay type: cell-based, human
[2] = tested on: U-87MG; assay: Inhibition of cancer cell proliferation (MTT); assay type: cell-based, human
How it was run: (§1)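 Growth inhibition over 72 h was measured in attached cultures (3000 per well) with 0.08% DMSO as the control. Viable cells were detected with a 2 h MTT step, and the concentration giving 50% inhibition was taken as GI50.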

[3] = tested on: SK-N-SH; assay: Inhibition of cancer cell proliferation (MTT); assay type: cell-based, human
How it was run: as §1

[4] = tested on: SH-SY5Y; assay: Inhibition of cancer cell proliferation (MTT); assay type: cell-based, human
How it was run: as §1

[5] = tested on: T98G; assay: Inhibition of cancer cell proliferation (MTT); assay type: cell-based, human
How it was run: as §1

[6] = tested on: Human colon carcinoma HCT116 cell line; assay: Tumor growth inhibition in an animal model (HCT116 xenograft); assay type: in vivo, Balb/c nude mouse; conditions: oral daily for 12 days; for tumor growth inhibition: vs vehicle control
Description: Tumor size was measured twice a week using Caliper. […] A vehicle control was 20% propylene glycol (PG) and a positive control was Xeloda at 100 mg/kg.

[7] = tested on: NCI-H23; assay: Inhibition of cancer cell proliferation (MTT); assay type: cell-based, human; conditions: Homo sapiens, NCI-H23, 72 h
How it was run: as §1

[8] = tested on: A549; assay: Inhibition of cancer cell proliferation (MTT); assay type: cell-based, human; conditions: Homo sapiens, A549, 72 h
How it was run: as §1

[9] = tested on: human normal lung cell line MRC5; assay: Cell cycle change by flow cytometry, normal cells; assay type: cell-based; conditions: 24 hrs
Description: (§2) A human colon carcinoma cell line HCT116 and a human normal lung cell line MRC5 were cultured in DMEM medium containing 10% FBS. Each cultured cells were harvested, placed in 6 well plate at 1×10^6 cells/well, and cultured at 5% CO2 and 37° C. for 16 hrs. The compounds of the above Examples at 75 nM and 150 nM in DMEM containing 5% FBS were added to the cells in each well, and after 24 hrs a change in the cell cycle was analyzed using a flow cytometry. Media of treatment groups and a control group were removed, trypsin was added to isolate cells from the plates and the cells were centrifuged at 1000 g for 3 min. The isolated cells were washed with a cold phosphate buffer (PBS) two times. Afterwards, 1 ml of 70% ethanol was added to the cells and the cells were maintained at 4° C. for 30 min or more to fix the cells. The fixed cells were centrifuged at 1000 g for 3 min to remove ethanol, and washed with phosphate buffer (PBS) two times to remove ethanol completely. The washed cells were suspended in 250 ul of PBS, 6.25 ul of 10 mg/ml RNaseA was added to the suspension and reacted for 15 min at room temperature to degrade all RNA. 12.5 ul of 1 mg/ml propidium iodide (PI, sigma) was added to stain intracellular DNA. The cell cycles of 10,000 stained cells were measured using FACS calibur (Becton-Dickinson, USA) and cell numbers present in G1, S and G2/M phases were calculated as percentage using a cell cycle analysis program. Tables 3 and 4 show the results of cell cycle analysis for the compound obtained in Example 1 in cancer cells and normal cells, respectively.

[10] = tested on: human colon carcinoma cell line HCT116; assay: Cell cycle change by flow cytometry, cancer cells; assay type: cell-based; conditions: 24 hrs
Description: as §2

`Nc1nccc(-c2nc(-c3ccnc(N)c3F)ccc2O)n1` [Example 8] was tested, and the GI50 ([1]; 72 hrs) was 10 nM, the GI50 ([2]; 72 hrs) was 60 nM and the GI50 ([3]; 72 hrs) was 10 nM. The GI50 ([4]; 72 hrs) was 10 nM and the GI50 ([5]; 72 hrs) was 190 nM.
Work on `Nc1cc(-c2ccc(O)c(-c3ccnc(N)n3)n2)ccn1` [Example 10, 2′-amino-6-(2-aminopyrimidin-4-yl)-[2,4′-bipyridin]-5-ol] yielded a GI50 ([1]; Homo sapiens, HCT-116, 72 h) of 260 nM, a GI50 ([2]; Homo sapiens, U-87 MG, 72 h) of 380 nM and a GI50 ([3]; Homo sapiens, SK-N-SH, 72 h) of 240 nM. It also gave a GI50 ([4]; Homo sapiens, SH-SY5Y, 72 h) of 110 nM.
`Nc1nccc(-c2ccc(O)c(-c3ccnc(N)n3)n2)n1` [Example 61, 2,6-bis(2-aminopyrimidin-4-yl)pyridin-3-ol 3hydrochloride] gave a Tumor size ([6]; 1 mpk) of 1082.4 ± 994.6 mm^3, a tumor growth inhibition ([6]; 1 mpk) of 41.3% and a Tumor size ([6]; 3 mpk) of 773.7 ± 253.9 mm^3. It also gave a tumor growth inhibition ([6]; 3 mpk) of 58.0%, a Tumor size ([6]; 10 mpk) of 647.4 ± 462.1 mm^3 and a tumor growth inhibition ([6]; 10 mpk) of 64.9%. For the same compound, the Tumor size ([6]; 30 mpk) was 403.4 ± 224.1 mm^3, the tumor growth inhibition ([6]; 30 mpk) was 78.1% and the GI50 ([1]; 72 hrs) was 90 nM. For the same compound, the GI50 [7] was 430 nM and the GI50 [8] was 210 nM.
In the case of `Nc1nccc(-c2ccc(O)c(-c3ccnc(N)n3)n2)n1` [Example 1, 2,6-bis(2-aminopyrimidin-4-yl)pyridin-3-ol], the “G1 (cell numbers as percentage)” value ([9]; MRC5, 75 nM) is reported as 50.7%, the “G2/M (cell numbers as percentage)” value ([9]; MRC5, 75 nM) is reported as 22.8% and the “Polyploidy (cell numbers as percentage)” value ([9]; MRC5, 75 nM) is reported as 8.8%. The “S (cell numbers as percentage)” value ([9]; MRC5, 75 nM) was 9.1%, the “Sub-G1 (cell numbers as percentage)” value ([9]; MRC5, 75 nM) was 8.8% and the “G1 (cell numbers as percentage)” value ([9]; MRC5, 150 nM) was 44.0%. The “G2/M (cell numbers as percentage)” value ([9]; MRC5, 150 nM) was 26.6%, the “Polyploidy (cell numbers as percentage)” value ([9]; MRC5, 150 nM) was 10.2% and the “S (cell numbers as percentage)” value ([9]; MRC5, 150 nM) was 6.8%. The “Sub-G1 (cell numbers as percentage)” value ([9]; MRC5, 150 nM) was 12.8%, the “G1 (cell numbers as percentage)” value ([10]; HCT116, 75 nM) was 22.3% and the “G2/M (cell numbers as percentage)” value ([10]; HCT116, 75 nM) was 51.5%. For the same compound, the “Polyploidy (cell numbers as percentage)” value ([10]; HCT116, 75 nM) was 16.3%, the “S (cell numbers as percentage)” value ([10]; HCT116, 75 nM) was 5.3% and the “Sub-G1 (cell numbers as percentage)” value ([10]; HCT116, 75 nM) was 4.9%. The “G1 (cell numbers as percentage)” value ([10]; HCT116, 150 nM) was 4.3%, the “G2/M (cell numbers as percentage)” value ([10]; HCT116, 150 nM) was 54.4% and the “Polyploidy (cell numbers as percentage)” value ([10]; HCT116, 150 nM) was 23.3%. For the same compound, the “S (cell numbers as percentage)” value ([10]; HCT116, 150 nM) was 2.6%, the “Sub-G1 (cell numbers as percentage)” value ([10]; HCT116, 150 nM) was 5.8% and the GI50 ([1]; 72 hrs) was 150 nM. The GI50 ([2]; Homo sapiens, U-87 MG, 72 h) was 850 nM, the GI50 ([3]; Homo sapiens, SK-N-SH, 72 h) was 280 nM and the GI50 ([4]; Homo sapiens, SH-SY5Y, 72 h) was 150 nM.
Compound `Cc1cc(-c2nc(-c3ccnc(N)c3F)ccc2O)nc(N)n1` [Example 71, 2′-amino-6-(2-amino-6-methylpyrimidin-4-yl)-3′-fluoro-[2,4′-bipyridin]-5-ol 3hydrochloride] has a GI50 ([1]; 72 hrs) of 10 nM, a GI50 ([2]; Homo sapiens, U-87 MG, 72 h) of 10 nM and a GI50 [7] of 40 nM. It also gave a GI50 ([5]; Homo sapiens, T98G, 72 h) of 60 nM and a GI50 [8] of 20 nM.
